From patent US20250120978A1, “JAK INHIBITOR WITH ERK1/2 AND/OR SHP2 INHIBITORS COMBINATION THERAPY” (Erasca, Inc., priority 2021, published 2025) come the findings set out here.

Molecules are shown by their SMILES.

The test system of test [1] is JAK2V617F knock-in mouse models. The experiment in a line: Splenomegaly in Jak2V617F knock-in mouse model of MPN. Format: in vivo. The settings on record: Compound 2 30 mg/kg/per day, compared with vehicle treatment. The procedure: In animal models, JAK2V617F expression typically leads to the development of MPN-like disease which results in enlargement of spleen (splenomegaly), higher cell counts, and fibrotic evolution. JAK2V617F knock-in mouse models were used to investigate the effect of the combination of Compound 2 with ruxolitinib. Animals were dosed with either Compound 2, ruxolitinib, or the combination of Compound 2 with ruxolitinib. […] Data are shown in bar graphs as mean±SEM (n=4 for vehicle; n=7 for Compound 2 I; n=4 for ruxolitinib; n=7 for combo drug treatment) in FIG. 6B. (*p<0.05; **p<0.005).

The subject of test [2] is Human JAK2V617F-positive UKE-1 cells. The experiment in a line: Apoptosis by Annexin V staining and flow cytometry in UKE-1 cells. The test is classed as cell-based. The settings on record: 72 hours, Annexin V staining; single drug. As for the experimental part: The following experiment was designed to test whether the combination of Compound 2 and ruxolitinib induces apoptosis in UKE-1 cells harboring a JAK2V617F mutation. […] Cell apoptosis was determined by Annexin V staining and flow cytometry.
(In general: Flow cytometry measures light scatter and fluorescence of single cells or particles in a stream.)

`COCOC[C@H]1C[C@H]2COc3c(Sc4cnc(N5CCC6(CC5)CO[C@@H](C)[C@H]6N)c(CO)n4)ccnc3N2C1` [Compound 2, (3-((3S,4S)-4-amino-3-methyl-2-oxa-8-azaspiro[4.5]decan-8-yl)-6-(((6aS,8S)-8-((methoxymethoxy)methyl)-6a,7,8,9-tetrahydro-6H-pyrido[3,2-b]pyrrolo[1,2-d][1,4]oxazin-4-yl)thio)pyrazin-2-yl)methanol]: the spleen size/weight result in test [1] is listed as “significantly reduced”. Also, the cell apoptosis entry in test [2] is recorded as “induced apoptosis”.
